Data reported in patent publication US8309138B2, “Pharmaceutical composition comprising microparticle oily suspension” (ASKA Pharmaceutical Co., Ltd., priority 2007, dated 2012).

Experiment: Solubility of the compound of formula (i)
Format: physicochemical
Description: Solubility of this compound is 1.09 μg/mL in Solution 1 (pH 1.2) defined in the Japanese Pharmacopoeia at 37° C., 0.88 μg/mL in Solution 2 (pH 6.8) defined in the Japanese Pharmacopoeia at 37° C., 0.53 μg/mL in a phosphate buffer (pH 7.2) at 37° C., and about 2 mg/mL in Panasate at room temperature.

solubility (Solution 1 defined in the Japanese Pharmacopoeia, simulated gastric fluid, Solution 1 (pH 1.2) defined in the Japanese Pharmacopoeia at 37° C.): 1.09 µg/mL
solubility (Solution 2 defined in the Japanese Pharmacopoeia, aqueous buffer, Solution 2 (pH 6.8) defined in the Japanese Pharmacopoeia at 37° C.): 0.88 µg/mL
solubility (aqueous buffer, phosphate buffer (pH 7.2) at 37° C.): 0.53 µg/mL
solubility (oil or lipid, in Panasate at room temperature): ~2000 µg/mL
Compound: O=C(Cc1c(F)cccc1Cl)Nc1onc(-c2ccc(F)cc2)c1-c1ccncn1 [formula (i)]
